Key:
[1] = molecular target: Gamma-aminobutyric acid receptor subunit alpha-1/alpha-2/beta-2/gamma-2 (Homo sapiens, UniProt P14867+P18507+P47869+P47870); type: functional, cell-based
[2] = molecular target: T1, Histamine H1 receptor (Homo sapiens, UniProt P35367); type: functional, cell-based
[3] = molecular target: T1, Histamine H1 receptor; type: functional, cell-based; remark: listed apart in the source
[4] = molecular target: T2, Peroxisome proliferator-activated receptor gamma (Homo sapiens, UniProt P37231); type: functional
T2 sequence (P37231 whole entry): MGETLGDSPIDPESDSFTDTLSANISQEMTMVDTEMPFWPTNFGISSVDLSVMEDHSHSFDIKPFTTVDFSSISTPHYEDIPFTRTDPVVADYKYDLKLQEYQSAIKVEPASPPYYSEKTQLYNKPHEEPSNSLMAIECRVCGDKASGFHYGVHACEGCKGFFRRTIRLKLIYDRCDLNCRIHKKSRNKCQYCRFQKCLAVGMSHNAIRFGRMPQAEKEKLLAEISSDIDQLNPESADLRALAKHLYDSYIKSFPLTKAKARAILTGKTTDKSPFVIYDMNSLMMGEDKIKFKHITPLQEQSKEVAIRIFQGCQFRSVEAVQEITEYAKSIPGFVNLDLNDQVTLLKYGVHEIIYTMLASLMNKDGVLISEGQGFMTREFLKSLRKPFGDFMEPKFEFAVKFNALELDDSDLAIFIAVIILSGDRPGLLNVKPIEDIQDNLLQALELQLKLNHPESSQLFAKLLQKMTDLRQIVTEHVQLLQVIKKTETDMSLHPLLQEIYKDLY

[5] = molecular target: T3, Corticotropin-releasing factor receptor 2 (Homo sapiens, UniProt Q13324)
T3 sequence (Q13324 whole entry): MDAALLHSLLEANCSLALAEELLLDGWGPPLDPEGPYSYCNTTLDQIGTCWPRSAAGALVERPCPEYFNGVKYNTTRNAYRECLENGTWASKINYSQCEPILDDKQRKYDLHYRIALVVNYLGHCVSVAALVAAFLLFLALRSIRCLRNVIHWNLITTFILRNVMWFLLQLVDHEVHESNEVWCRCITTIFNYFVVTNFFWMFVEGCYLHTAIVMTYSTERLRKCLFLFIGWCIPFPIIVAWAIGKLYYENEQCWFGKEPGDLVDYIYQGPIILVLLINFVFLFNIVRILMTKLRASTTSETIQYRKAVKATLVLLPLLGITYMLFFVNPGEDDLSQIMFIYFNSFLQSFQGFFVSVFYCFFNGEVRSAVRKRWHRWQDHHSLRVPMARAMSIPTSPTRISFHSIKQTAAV

[6] = molecular target: Glucagon receptor (Homo sapiens, UniProt P47871)
[7] = molecular target: T4, Gastric inhibitory polypeptide receptor (Homo sapiens, UniProt P48546)
T4 sequence (P48546 whole entry): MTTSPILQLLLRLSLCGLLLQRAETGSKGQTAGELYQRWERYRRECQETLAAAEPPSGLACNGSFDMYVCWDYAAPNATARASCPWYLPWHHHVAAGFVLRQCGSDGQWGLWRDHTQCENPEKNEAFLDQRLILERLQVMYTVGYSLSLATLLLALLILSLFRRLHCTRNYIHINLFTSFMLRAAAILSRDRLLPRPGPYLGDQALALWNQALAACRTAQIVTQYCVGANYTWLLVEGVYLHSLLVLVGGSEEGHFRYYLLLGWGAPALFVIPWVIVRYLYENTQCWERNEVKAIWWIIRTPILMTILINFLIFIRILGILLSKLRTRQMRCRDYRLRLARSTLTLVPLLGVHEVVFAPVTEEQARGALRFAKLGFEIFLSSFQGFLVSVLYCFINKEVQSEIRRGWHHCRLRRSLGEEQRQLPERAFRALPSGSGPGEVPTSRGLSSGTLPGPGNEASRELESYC

[8] = molecular target: T5, Neuropeptide Y receptor type 2 (Homo sapiens, UniProt P49146)
T5 sequence (P49146 whole entry): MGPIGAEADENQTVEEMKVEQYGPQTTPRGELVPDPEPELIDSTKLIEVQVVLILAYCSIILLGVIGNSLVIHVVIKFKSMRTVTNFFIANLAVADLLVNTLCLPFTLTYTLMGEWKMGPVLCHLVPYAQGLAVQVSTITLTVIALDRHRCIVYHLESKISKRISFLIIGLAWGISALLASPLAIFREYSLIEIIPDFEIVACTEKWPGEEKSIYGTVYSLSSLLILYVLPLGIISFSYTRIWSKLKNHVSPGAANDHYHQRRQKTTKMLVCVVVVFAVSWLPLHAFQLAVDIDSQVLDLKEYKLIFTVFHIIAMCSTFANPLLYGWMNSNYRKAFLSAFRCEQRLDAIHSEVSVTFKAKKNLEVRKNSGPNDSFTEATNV

[9] = molecular target: T6, Alpha-2A adrenergic receptor (Homo sapiens, UniProt P08913)
T6 sequence (P08913 whole entry): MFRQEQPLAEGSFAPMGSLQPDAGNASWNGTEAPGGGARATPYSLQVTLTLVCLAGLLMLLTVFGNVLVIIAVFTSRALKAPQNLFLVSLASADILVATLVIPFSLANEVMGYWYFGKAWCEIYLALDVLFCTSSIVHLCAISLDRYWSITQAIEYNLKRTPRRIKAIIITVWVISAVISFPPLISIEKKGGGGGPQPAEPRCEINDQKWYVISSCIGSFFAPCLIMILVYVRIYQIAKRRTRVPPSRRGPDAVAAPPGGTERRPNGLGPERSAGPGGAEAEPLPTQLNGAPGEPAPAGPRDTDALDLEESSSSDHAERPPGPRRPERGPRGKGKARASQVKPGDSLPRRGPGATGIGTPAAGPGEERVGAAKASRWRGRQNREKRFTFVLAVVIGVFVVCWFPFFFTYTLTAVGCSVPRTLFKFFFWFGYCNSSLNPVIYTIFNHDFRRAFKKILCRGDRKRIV
Also: assay procedure not described here.

Gamma-aminobutyric acid receptor subunit alpha-1/alpha-2/beta-2/gamma-2, sequence (P14867 whole entry): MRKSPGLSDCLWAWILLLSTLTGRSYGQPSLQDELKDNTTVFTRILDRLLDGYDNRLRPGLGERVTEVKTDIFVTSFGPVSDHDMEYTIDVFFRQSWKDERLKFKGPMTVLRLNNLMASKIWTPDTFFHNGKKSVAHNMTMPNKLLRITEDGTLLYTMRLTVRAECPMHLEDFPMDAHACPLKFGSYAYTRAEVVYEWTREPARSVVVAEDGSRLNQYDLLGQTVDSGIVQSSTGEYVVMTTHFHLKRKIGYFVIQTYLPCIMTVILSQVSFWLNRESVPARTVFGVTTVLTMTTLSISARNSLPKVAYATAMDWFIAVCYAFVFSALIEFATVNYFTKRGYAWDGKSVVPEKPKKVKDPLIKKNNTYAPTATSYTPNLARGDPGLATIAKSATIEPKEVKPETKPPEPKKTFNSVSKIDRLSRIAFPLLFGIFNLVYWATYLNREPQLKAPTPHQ
Gamma-aminobutyric acid receptor subunit alpha-1/alpha-2/beta-2/gamma-2, sequence (P47870 whole entry): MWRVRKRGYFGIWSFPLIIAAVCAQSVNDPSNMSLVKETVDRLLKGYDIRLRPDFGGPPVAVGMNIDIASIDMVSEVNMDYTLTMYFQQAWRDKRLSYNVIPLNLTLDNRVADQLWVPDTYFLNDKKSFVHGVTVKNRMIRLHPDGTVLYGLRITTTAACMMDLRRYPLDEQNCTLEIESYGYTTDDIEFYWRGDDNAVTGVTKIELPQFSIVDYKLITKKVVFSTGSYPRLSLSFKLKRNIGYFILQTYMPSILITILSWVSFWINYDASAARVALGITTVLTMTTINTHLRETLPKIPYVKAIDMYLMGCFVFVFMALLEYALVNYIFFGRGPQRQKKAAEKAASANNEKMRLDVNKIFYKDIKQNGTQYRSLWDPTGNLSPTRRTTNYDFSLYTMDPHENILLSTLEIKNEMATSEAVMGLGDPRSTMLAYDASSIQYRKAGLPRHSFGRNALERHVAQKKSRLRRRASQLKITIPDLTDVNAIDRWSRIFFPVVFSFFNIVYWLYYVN
Gamma-aminobutyric acid receptor subunit alpha-1/alpha-2/beta-2/gamma-2, sequence (P18507 whole entry): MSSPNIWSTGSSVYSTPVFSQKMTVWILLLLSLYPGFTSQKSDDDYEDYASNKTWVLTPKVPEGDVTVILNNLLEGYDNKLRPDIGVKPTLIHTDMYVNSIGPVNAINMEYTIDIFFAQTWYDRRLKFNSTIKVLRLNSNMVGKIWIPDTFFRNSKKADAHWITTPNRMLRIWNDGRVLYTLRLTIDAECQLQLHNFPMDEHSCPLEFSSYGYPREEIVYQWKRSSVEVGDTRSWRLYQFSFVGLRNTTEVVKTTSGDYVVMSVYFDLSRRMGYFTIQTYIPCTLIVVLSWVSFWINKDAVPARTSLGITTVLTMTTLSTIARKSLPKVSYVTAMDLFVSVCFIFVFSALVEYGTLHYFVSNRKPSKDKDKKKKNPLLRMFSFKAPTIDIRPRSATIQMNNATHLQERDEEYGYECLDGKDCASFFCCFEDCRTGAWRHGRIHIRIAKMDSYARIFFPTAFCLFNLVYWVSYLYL
Gamma-aminobutyric acid receptor subunit alpha-1/alpha-2/beta-2/gamma-2, sequence (P47869 whole entry): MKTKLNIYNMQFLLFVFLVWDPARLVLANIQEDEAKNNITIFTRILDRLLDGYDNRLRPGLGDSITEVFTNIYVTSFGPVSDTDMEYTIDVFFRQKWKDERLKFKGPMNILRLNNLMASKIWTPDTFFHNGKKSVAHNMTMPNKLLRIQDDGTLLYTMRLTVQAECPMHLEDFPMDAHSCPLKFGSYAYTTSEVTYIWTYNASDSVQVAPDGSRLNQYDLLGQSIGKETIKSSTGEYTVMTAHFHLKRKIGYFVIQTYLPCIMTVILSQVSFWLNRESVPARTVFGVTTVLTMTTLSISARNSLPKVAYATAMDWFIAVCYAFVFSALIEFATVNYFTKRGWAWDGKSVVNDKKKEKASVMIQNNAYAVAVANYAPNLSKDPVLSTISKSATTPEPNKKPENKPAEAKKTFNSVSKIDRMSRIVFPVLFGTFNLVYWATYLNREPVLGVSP
T1 sequence (P35367 whole entry): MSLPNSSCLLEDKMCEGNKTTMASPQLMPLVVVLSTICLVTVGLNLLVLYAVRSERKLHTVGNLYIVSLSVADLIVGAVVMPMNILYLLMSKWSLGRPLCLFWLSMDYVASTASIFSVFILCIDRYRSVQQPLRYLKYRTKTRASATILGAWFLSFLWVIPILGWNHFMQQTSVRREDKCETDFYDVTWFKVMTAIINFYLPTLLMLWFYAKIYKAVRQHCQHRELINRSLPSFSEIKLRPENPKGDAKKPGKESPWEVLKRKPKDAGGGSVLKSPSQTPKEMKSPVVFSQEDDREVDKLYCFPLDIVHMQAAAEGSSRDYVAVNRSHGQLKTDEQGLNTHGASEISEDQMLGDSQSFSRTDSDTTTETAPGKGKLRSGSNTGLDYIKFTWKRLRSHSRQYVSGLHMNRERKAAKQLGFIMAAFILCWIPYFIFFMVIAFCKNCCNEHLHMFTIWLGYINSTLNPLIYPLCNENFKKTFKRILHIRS
Glucagon receptor, sequence (P47871 whole entry): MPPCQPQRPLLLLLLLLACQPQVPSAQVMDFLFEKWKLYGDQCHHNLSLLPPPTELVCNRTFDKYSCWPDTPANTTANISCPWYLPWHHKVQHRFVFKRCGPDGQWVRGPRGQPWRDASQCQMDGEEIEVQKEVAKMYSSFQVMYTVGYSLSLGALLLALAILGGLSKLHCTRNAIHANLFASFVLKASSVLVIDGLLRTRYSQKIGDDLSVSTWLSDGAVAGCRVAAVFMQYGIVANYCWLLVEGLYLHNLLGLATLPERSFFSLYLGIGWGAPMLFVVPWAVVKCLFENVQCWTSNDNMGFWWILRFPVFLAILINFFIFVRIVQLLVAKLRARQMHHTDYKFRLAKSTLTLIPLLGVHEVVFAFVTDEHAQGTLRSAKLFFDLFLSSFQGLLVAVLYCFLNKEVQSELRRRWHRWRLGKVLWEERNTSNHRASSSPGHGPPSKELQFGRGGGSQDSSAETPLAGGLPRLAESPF

SMILES	AC50 [1] [µM]	AC50 [2] [µM]	AC50 [3] [µM]	AC50 [4] [µM]	other results
C[C@]12CC[C@@H]3c4ccc(O)cc4C[C@@H](CCCCCCCCC[S+]([O-])CCCC(F)(F)C(F)(F)F)[C@H]3[C@@H]1CC[C@@H]2O (stereo not given in full) [FULVESTRANT]	> 30	> 30	> 30	14	–
CC(=O)N[C@@H](CS)C(=O)O [ACETYLCYSTEINE]	–	> 30	> 30	–	–
C/N=C(\NC)NCc1ccccc1 [BETHANIDINE]	> 30	–	–	> 30	–
CN1CCC(=C2c3ccccc3CCc3cccnc32)CC1 [AZATADINE]	–	> 30	0.0665	–	AC50 [9]: > 10 µM

Second part, led by results:

AC50 [1] [µM]	AC50 [2] [µM]	AC50 [3] [µM]	AC50 [4] [µM]	SMILES	other results
–	> 30	> 30	–	CC12CC3CC(C)(C1)CC(N)(C3)C2 [MEMANTINE]	AC50 [5]: > 30 µM; AC50 [6]: > 30 µM; AC50 [7]: > 30 µM; AC50 [8]: > 30 µM
> 30	> 30	> 30	–	CCC(C)C(CC)C(N)=O (stereo not given) [VALNOCTAMIDE]	–
> 30	–	–	18	Oc1ccc2c(c1)CC[C@H](c1ccccc1)[C@@H]2c1ccc(OCCN2CCCC2)cc1 [LASOFOXIFENE]	–
–	> 30	23	0.4	C[C@H](Cc1ccc(O)c(O)c1)[C@@H](C)Cc1ccc(O)c(O)c1 [MASOPROCOL]	–
